# Laboratory results as given in the supplement of paper PMC8149375.
# Legend:
# Conditions in all cases: treatment: drug + dasatinib (fixed dose, not stated); 5 days
# TK-10 [1] = assay: AUC of dose-response viability curve, drug + dasatinib, normalised to DMSO (arbitrary (AUC of normalised viability)); higher = less growth inhibition
# Procedure: (§1)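 Primary HTS combination arm: 8 RCC cell lines treated with 8 doses (up to 10 uM) of each library drug plus a fixed dose of dasatinib (dose not stated) for 5 days; viability read by CellTiter-Glo and normalised to DMSO. GI50 was fitted with XLfit, AUC is the area under the dose-response curve, and minimum viability is the lowest fraction of DMSO viability across doses.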
# 786-O [2] = assay: as above
# Procedure: as §1
# 769-P [3] = assay: as above
# Procedure: as §1
# A498 [4] = assay: as above
# Procedure: as §1
# CAKI-1 [5] = assay: as above
# Procedure: as §1
# UO-31 [6] = assay: as above
# Procedure: as §1
# ACHN [7] = assay: as above
# Procedure: as §1
# SN12C [8] = assay: as above
# Procedure: as §1
# TK-10 [9] = assay: GI50 of drug in presence of dasatinib; higher = less potent
# Procedure: as §1
# 786-O [10] = assay: as above
# Procedure: as §1
# 769-P [11] = assay: as above
# Procedure: as §1
# A498 [12] = assay: as above
# Procedure: as §1
# CAKI-1 [13] = assay: as above
# Procedure: as §1
# UO-31 [14] = assay: as above
# Procedure: as §1
# ACHN [15] = assay: as above
# Procedure: as §1
# SN12C [16] = assay: as above
# Procedure: as §1
# TK-10 [17] = assay: minimum viability across doses, drug + dasatinib, relative to DMSO (fraction); higher = less growth inhibition
# Procedure: as §1
# 786-O [18] = assay: as above
# Procedure: as §1
# 769-P [19] = assay: as above
# Procedure: as §1
# A498 [20] = assay: as above
# Procedure: as §1
# CAKI-1 [21] = assay: as above
# Procedure: as §1
# UO-31 [22] = assay: as above
# Procedure: as §1
# ACHN [23] = assay: as above
# Procedure: as §1
# SN12C [24] = assay: as above
# Procedure: as §1
Structure (SMILES),AUC of dose-response viability curve (TK-10 [1]),AUC of dose-response viability curve (786-O [2]),AUC of dose-response viability curve (769-P [3]),AUC of dose-response viability curve (A498 [4]),AUC of dose-response viability curve (CAKI-1 [5]),AUC of dose-response viability curve (UO-31 [6]),AUC of dose-response viability curve (ACHN [7]),AUC of dose-response viability curve (SN12C [8]),GI50 of drug (TK-10 [9]) [µM],GI50 of drug (786-O [10]) [µM],GI50 of drug (769-P [11]) [µM],GI50 of drug (A498 [12]) [µM],GI50 of drug (CAKI-1 [13]) [µM],GI50 of drug (UO-31 [14]) [µM],GI50 of drug (ACHN [15]) [µM],GI50 of drug (SN12C [16]) [µM],minimum viability across doses (TK-10 [17]),minimum viability across doses (786-O [18]),minimum viability across doses (769-P [19]),minimum viability across doses (A498 [20]),minimum viability across doses (CAKI-1 [21]),minimum viability across doses (UO-31 [22]),minimum viability across doses (ACHN [23]),minimum viability across doses (SN12C [24])
Cc1cccc(-c2nc(C(C)(C)C)[nH]c2-c2ccc3nccnc3c2)n1 + Cc1nc(Nc2ncc(C(=O)Nc3c(C)cccc3Cl)s2)cc(N2CCN(CCO)CC2)n1 [dasatinib],2.51,2.16,2.34,3.7,2.29,4.8,2.06,2.18,> 10,> 10,7.81,8.41,7.37,> 10,> 10,3.77,0.61,0.517,0.476,0.411,0.486,0.824,0.559,0.317
Cc1[nH]c(/C=C2/C(=O)Nc3ccc(S(=O)(=O)N(C)c4cccc(Cl)c4)cc32)c(C)c1C(=O)N1CCN(C)CC1 + Cc1nc(Nc2ncc(C(=O)Nc3c(C)cccc3Cl)s2)cc(N2CCN(CCO)CC2)n1 [dasatinib],2.82,2.29,2.35,3.28,2.23,3.25,1.62,2.43,> 10,3.95,5.76,> 10,3.07,9.29,0.022,6.07,0.719,0.279,0.366,0.605,0.173,0.448,0.209,0.443
CC(C)(C)c1cnc(CSc2cnc(NC(=O)C3CCNCC3)s2)o1 + Cc1nc(Nc2ncc(C(=O)Nc3c(C)cccc3Cl)s2)cc(N2CCN(CCO)CC2)n1 [dasatinib],2.02,1.26,2.04,1.6,1.59,2.06,1.26,1.34,0.476,0.0558,1.19,0.129,0.131,0.429,0.157,0.134,0.189,0.00565,0.0223,0.00993,0.034,0.013,0.00387,0.0108
Nc1nc(N)c2nc(-c3cccc(O)c3)cnc2n1 + Cc1nc(Nc2ncc(C(=O)Nc3c(C)cccc3Cl)s2)cc(N2CCN(CCO)CC2)n1 [dasatinib],2.4,1.84,2.54,2.98,2.17,3.5,1.67,2.15,3,0.22,> 10,4.14,1.76,2.96,0.285,1.41,0.269,0.0115,0.647,0.222,0.0946,0.0458,0.16,0.183
Cn1cc(C2=C(c3ccc(Cl)cc3Cl)C(=O)NC2=O)c2ccccc21 + Cc1nc(Nc2ncc(C(=O)Nc3c(C)cccc3Cl)s2)cc(N2CCN(CCO)CC2)n1 [dasatinib],2.74,2.55,2.36,3.8,0.956,3.15,2.2,2.53,> 10,> 10,5.29,> 10,> 10,6.21,> 10,> 10,0.532,0.587,0.288,0.929,0.562,0.191,0.548,0.642
O=C1c2ccccc2-c2n[nH]c3cccc1c23 + Cc1nc(Nc2ncc(C(=O)Nc3c(C)cccc3Cl)s2)cc(N2CCN(CCO)CC2)n1 [dasatinib],2.45,2.31,2.38,3.27,2.12,3.27,2.22,2.5,6.49,5.35,> 10,> 10,2.88,> 10,6.75,> 10,0.407,0.351,0.558,0.693,0.106,0.529,0.261,0.629
CS(=O)c1ccc(-c2nc(-c3ccc(F)cc3)c(-c3ccncc3)[nH]2)cc1 (configuration not stated) + Cc1nc(Nc2ncc(C(=O)Nc3c(C)cccc3Cl)s2)cc(N2CCN(CCO)CC2)n1 [dasatinib],2.45,2.73,2.31,3.76,2.3,3.73,1.82,2.65,> 10,> 10,> 10,> 10,> 10,> 10,0.0157,> 10,0.655,0.746,0.593,0.893,0.516,0.962,0.434,0.716
CN(C)CCOc1ccc(-c2nc(-c3ccncc3)c(-c3ccc4c(c3)CC/C4=N/O)[nH]2)cc1 + Cc1nc(Nc2ncc(C(=O)Nc3c(C)cccc3Cl)s2)cc(N2CCN(CCO)CC2)n1 [dasatinib],3.03,2.6,2.3,3.54,2.33,3.9,2.29,2.57,9.95,3.72,3.46,3.76,3.9,8.34,2.48,> 10,0.497,0.0096,0.0915,0.0493,0.0583,0.0511,0.0859,0.476
